# Legend:
# [1] = tested on: neurotoxic aggregating proteins; details: cited from earlier work
# in vivo = test: in vivo
# Procedure: (§1) The animal PKs were taken from multiple GLP toxicology studies, biomarker studies, and efficacy studies. […] Sample size (n) represents the number of animals at each time point of sample collection. […] The dose volume was determined according to animals’ weight collected on the dosing day.
# (§2) In mice, blood samples were collected via the saphenous vein or other suitable blood collection site into a microcentrifuge tube containing the anti-coagulant K2-EDTA on wet ice and processed for plasma. For samples collected within the first hour of dosing, ±1 min is acceptable, while for all other timepoints, samples were taken within 5% of the scheduled time and are not considered as protocol deviations. Plasma samples were centrifuged (3200× g for 10 min at 4 °C) within an hour of collection. CSF samples were collected with 3 μL volume per time point, frozen on dry ice, and stored at −60 °C for further analysis. For brain collection in mice, animals were euthanized using CO2 inhalation. Whole brain was collected, washed in cold saline, dried, and homogenized immediately […]. Homogenizing buffer MeOH/15 mM PBS (1:2, v:v) was used at a ratio of 1:9 (1 g of tissue with 9 mL of buffer; the dilution ratio is 10).
# (§3) In humans, the bioanalytical method was performed in accordance with current FDA, Industry Guidelines, and OECD Principles. […] The sample analysis was conducted in accordance with current GCP and GLP principles, and the results were presented for pharmacokinetic profiling (Absorption Systems, Exton, PA, USA). Calibration ranges for each analyte ranged from 1000 ng/mL to 1 ng/mL (or ng/g for brain) in plasma, brain, and CSF matrices. The detection limit was 0.025 ng/mL. The following PK parameters were collected for the purpose of this manuscript: maximum concentration (Cmax), time to maximum drug concentration (Tmax), half-life (T1/2), and the Area Under the Curve (AUC).
# acetylcholinesterase = details: cited from earlier work
# [2] = Plasma pharmacokinetics after oral Posiphen in humans (LC-MS/MS); type: in vivo, human; details: human, in vivo, po; for AUC(0-t): read-out: AUC (0-t)
# Procedure: This paper describes data from multiple studies.
# Samples were frozen and then stored at −80 °C.
# (§4) The detection limit was 0.025 ng/mL.
# clinical = details: human, in vivo; for Kp: 80 mg/day; for AUC(0-t) / Cmax: po
# Procedure: This paper describes data from multiple studies. The healthy volunteers’ data come from the single ascending and multiple ascending dose study, whereas Alzheimer’s and Parkinson’s patients are represented by the MCI NCT01072812 study, ADCS NCT02925650 study, and AD/PD NCT04524351 study. The evaluations are based on a sample size of n = 4 for each time point.
# In humans, plasma and lumbar CSF samples were collected via an indwelling catheter over 12 h (at 0, 1, 1.5, 2, 3, 4, 6, 8, and 12 h) initiated at the same time of day, 1 day prior to the start of dosing, to obtain time-dependent baseline control data, and then at the exact same times immediately after the last dose was administered. Samples were frozen and then stored at −80 °C.
# as §3
# [3] = Plasma pharmacokinetics after oral Posiphen in CD-1 mice (LC-MS/MS); details: for AUC(0-t) / Cmax / Tmax: po
# Procedure: as §1, §2, §3
# Blood plasma samples were collected at various time points within the initial 8 h following administration (6 h for humans). Plasma concentrations (ng/mL) were measured over the 8 h observation window to characterize the maximum concentration (Cmax), the time to peak drug concentration (Tmax), the half-life (T1/2), and the Area Under the Curve (AUC).
# [4] = Plasma pharmacokinetics after oral Posiphen in Beagle dogs (LC-MS/MS); parameters: species or system dog; details: dog plasma
# Procedure: In rats and dogs, blood samples were centrifuged, and the resultant plasma was separated, and 200 µL (rat) or 400 µL (dog) of plasma was transferred to uniquely labeled pre-chilled polypropylene tubes containing 5 µL (rat) or 10 µL (dog) Dichlorvos spiking solution (nominal concentration of 0.82 mg/mL in MeOH/Water, 20/80, v/v).
# as §4
# [5] = CD-1, mouse, in vivo, po, 65 mg/kg, Cmax, Table 2, mouse CSF, oral Posiphen
# [6] = both, CD-1, mouse, in vivo, 65 mg/kg
Compound,TINAP activity [1],Cmax (in vivo; [5]) [ng/mL],"Cmax (in vivo; CD-1, mouse, po, 65 mg/kg) [ng/mL]",Acetylcholinesterase inhibitory (AChEI) activity (acetylcholinesterase),Cmax [2] [ng/mL],AUC(0-t) [2] [ng·h/mL],Kp (clinical),AUC(0-t) (clinical) [ng·h/mL],Cmax (clinical) [ng/mL],"concentration at 0.25 h [3, 6] [ng/mL]","concentration at 0.5 h [3, 6] [ng/mL]","concentration at 1 h [3, 6] [ng/mL]","concentration at 1.25 h [3, 6] [ng/mL]","concentration at 1.5 h [3, 6] [ng/mL]","concentration at 2 h [3, 6] [ng/mL]","concentration at 4 h [3, 6] [ng/mL]","concentration at 12 h [3, 6] [ng/mL]","AUC(0-t) [3, 6] [ng·h/mL]","Cmax [3, 6] [ng/mL]","Tmax [3, 6] [h]",also measured
"CN1c2ccc(OC(=O)Nc3ccccc3)cc2[C@@]2(C)CCNC12 (stereo partly shown) [N1, N1-norposiphen]",has both TINAP and AChEI activities,54.5,1850,has both TINAP and AChEI activities,24.9,213,0.1,26.7,2.56,350,484,446,554,525,419,83.6,0,1400,554,1.25,"Cmax (in vivo; Table 2, mouse CSF, oral Posiphen): 54.4 ng/mL; concentration at 8 h [3, 6]: 3.64 ng/mL; Plasma level relative to N8 ([3]; mouse plasma): a fourth; Plasma level relative to Posiphen ([3]; mouse plasma): half; Primary compound in plasma [4]: primary compound"
"C[C@]12CCNC1Nc1ccc(OC(=O)Nc3ccccc3)cc12 (stereo partly shown) [N1, N8, N1,N8-norposiphen]",,,,,3.66,36.9,,,,,,,,,,,,,,,
"CN1CC[C@]2(C)c3cc(OC(=O)Nc4ccccc4)ccc3NC12 (stereo partly shown) [N8, N8-norposiphen]",have TINAP,309,7290,no acetylcholinesterase inhibitory (AChEI) activity,30.4,260,0.17,54.9,5.08,882,1310,1560,1790,1930,1830,478,0,5330,1930,1.5,half-life (clinical): > 12 h; Plasma level relative to N1 ([3]; mouse plasma): 3.8 times

# Reference: PMC11117716 (Biomolecules, 2024)
